Laboratory results published in PMC2359919, “Molecular targeting of retinoic acid metabolism in neuroblastoma: the role of the CYP26 inhibitor R116010 in vitro and in vivo” (British Journal of Cancer, 2007).

Columns and labels:
RA metabolism = experiment: Effect of R116010 on retinoid concentrations (plasma, liver, tumour) in an SH-SY5Y xenograft model, LC/MS; format: in vivo, CD-1 nude mice; settings: ATRA-treated mice (100 mg kg^−1) without or with R116010; 6 h
Procedure: (§1) All in vivo experiments were approved by the relevant institutional animal welfare committees, and performed according to national law. Female athymic nude mice (CD-1 nu/nu, Charles River) used for antitumour studies were maintained and handled in isolators, under specific pathogen-free conditions, at 24°C with a 12 h light, 12 h dark cycle. Tumours were generated by implantation of SH-SY5Y cells subcutaneously (s.c.) into one flank of CD-1 nude mice (1 × 10^7 cells per animal).
(§2) Treatments began when the tumours were between 7 and 10 mm in length and breadth. Retinoids and R116010 were initially dissolved in DMSO before 10- or 20-fold dilutions in PBS, respectively. For pharmacokinetic studies, the animals were dosed with ATRA or 13cisRA (each 100 mg kg^−1) orally for 0.5, 2 and 6 h. For metabolism studies, animals were treated with R116010 orally at doses of 1.25 or 2.5 mg kg^−1 either immediately before the retinoid being studied, or up to three times (over 1–2 days) before dosing with the retinoid. At termination of experiments, animals were bled under terminal anaesthesia then killed by cervical dislocation. Plasma was immediately removed from the blood by centrifugation at 1000 g for 5 min and snap-frozen in liquid nitrogen in amber Eppendorfs. Tumour and liver samples were removed and snap-frozen, wrapped in foil, in liquid nitrogen.
(§3) Cell pellets obtained from retinoid incubations were re-suspended in 2 ml cell culture medium and disrupted by passing the samples several times through a syringe and hypodermic needle (25G × 1 inches, 0.5 mm × 25 mm; Terumo, Somerset, NJ, USA). Tumour and liver tissues were re-suspended in PBS and homogenised (T25 homogeniser, IKA Laboratories, Staufen, Germany). Retinoids were extracted as described previously ([Veal et al, 2002]; [Armstrong et al, 2005b]). Samples were reconstituted in 200 μl mobile phase A (n-hexane:dichloromethane:propan-2-ol, 400 : 1 : 0.27) and analysed by normal-phase HPLC as described previously ([Veal et al, 2002]). For LC/MS analysis, samples were reconstituted in 200 μl mobile phase A (50% acetonitrile, 50% (0.2%) acetic acid, v v^−1).
(§4) Resolution of retinoids was performed with a Luna C18(2) column (3 μm, 50 mm × 2 mm) using a Perkin Elmer LC (Beaconsfield, UK) system, consisting of a vacuum degasser, two series 200 pumps, a thermostatically controlled series 200 autosampler and a Waters 2487 UV absorbance detector. Retinoic isomers and metabolites were separated by gradient reversed-phase chromatography. An injection volume of 20 μl with a flow rate of 0.2 ml min^−1 was used with mobile phase A (50% acetonitrile, 50% (0.2%) acetic acid, v v^−1) and mobile phase B (acetonitrile, 0.1% acetic acid, v v^−1). Linear gradients were employed between the specified times as follows: 0, 100% A; 5 min, 100% A; 15 min, 100% B; 20 min, 100% B; 23 min, 100% A; 35 min, 100% A. An Applied Biosystems (Warrington, UK) API-2000 LC/MS/MS triple Q (quadrupole) mass spectrometer with electrospray ionisation source, controlled by Analyst software, was operated in single quadrupole negative mode for the detection of compounds.

[1] = Pharmacokinetic analysis of RA in an SH-SY5Y xenograft model (retinoid concentrations in plasma, liver, tumour by LC/MS); format: in vivo, CD-1 nude mice; settings: for % Total retinoids, tumour, 0.5 h / Tumour concentration, 0.5 h / % Total retinoids, tumour, 2 h / Tumour concentration, 2 h / % Total retinoids, tumour, 6 h / Tumour concentration, 6 h: SH-SY5Y tumour; for % Total retinoids, tumour, 0.5 h / Tumour concentration, 0.5 h / % Total retinoids, tumour, 2 h / Tumour concentration, 2 h / % Total retinoids, tumour, 6 h / Tumour concentration, 6 h / % Total retinoids, liver, 0.5 h / Liver concentration, 0.5 h / % Total retinoids, liver, 2 h / Liver concentration, 2 h / % Total retinoids, liver, 6 h / Liver concentration, 6 h / % Total retinoids, plasma, 0.5 h / Plasma concentration, 0.5 h / % Total retinoids, plasma, 2 h / Plasma concentration, 2 h / % Total retinoids, plasma, 6 h / Plasma concentration, 6 h: label = retinoid measured; for Plasma % of total retinoids at all time points: 0.5, 2 and 6 h
Procedure: as §1, §2, §3, §4

CYP26 = test system: CYP26; set-up: method as in Njar et al, 2006; settings: ref Njar et al, 2006; cited from earlier work
[2] = after 13cisRA 100 mg kg^−1 oral

Row | SMILES | % Total retinoids, tumour, 0.5 h [1, 2] [%] | Tumour concentration, 0.5 h [1, 2] [µg/g] | % Total retinoids, tumour, 2 h [1, 2] [%] | Tumour concentration, 2 h [1, 2] [µg/g] | % Total retinoids, tumour, 6 h [1, 2] [%] | Tumour concentration, 6 h [1, 2] [µg/g] | % Total retinoids, liver, 0.5 h [1, 2] [%] | Liver concentration, 0.5 h [1, 2] [µg/g] | % Total retinoids, liver, 2 h [1, 2] [%] | Liver concentration, 2 h [1, 2] [µg/g] | % Total retinoids, liver, 6 h [1, 2] [%] | Liver concentration, 6 h [1, 2] [µg/g] | % Total retinoids, plasma, 0.5 h [1, 2] [%] | Plasma concentration, 0.5 h [1, 2] [nM] | % Total retinoids, plasma, 2 h [1, 2] [%] | Plasma concentration, 2 h [1, 2] [nM] | % Total retinoids, plasma, 6 h [1, 2] [%] | Plasma concentration, 6 h [1, 2] [nM] | % Total retinoids, tumour, 0.5 h ([1]; after ATRA 100 mg kg^−1 oral) [%] | Tumour concentration, 0.5 h ([1]; after ATRA 100 mg kg^−1 oral) [µg/g] | also measured
1 | CC1=C(/C=C/C(C)=C/C=C/C(C)=C\C(=O)O)C(C)(C)CCC1=O [13cis-4-oxoRA, 13-cis-4-oxo-RA] | 3 | 0.06 ± 0.02 | 2 | 0.04 ± 0.0 | 19 | 0.11 ± 0.05 | 18 | 0.89 ± 0.22 | 33 | 1.33 ± 0.08 | 69 | 3.79 ± 0.99 | 2 | 270 ± 110 | 3 | 630 ± 100 | 20 | 1220 ± 240 | 0 | 0 | Plasma 13cis-4-oxo-RA (RA metabolism): not detectable; Liver concentration, 6 h ([1]; after 13cisRA 100 mg kg^−1 oral, listed as 13cis-4-oxo-RA): 3.79 µg/g; Plasma % of total retinoids at all time points ([1]; after ATRA 100 mg kg^−1): < 10%; % Total retinoids, tumour, 2 h ([1]; after ATRA 100 mg kg^−1 oral): 0%; Tumour concentration, 2 h ([1]; after ATRA 100 mg kg^−1 oral): 0 µg/g; % Total retinoids, tumour, 6 h ([1]; after ATRA 100 mg kg^−1 oral): 0%; Tumour concentration, 6 h ([1]; after ATRA 100 mg kg^−1 oral): 0 µg/g; % Total retinoids, liver, 0.5 h ([1]; after ATRA 100 mg kg^−1 oral): 1%; Liver concentration, 0.5 h ([1]; after ATRA 100 mg kg^−1 oral): 0.06 ± 0.03 µg/g; % Total retinoids, liver, 2 h ([1]; after ATRA 100 mg kg^−1 oral): 1%; Liver concentration, 2 h ([1]; after ATRA 100 mg kg^−1 oral): 0.09 ± 0.02 µg/g; % Total retinoids, liver, 6 h ([1]; after ATRA 100 mg kg^−1 oral): 4%; Liver concentration, 6 h ([1]; after ATRA 100 mg kg^−1 oral): 0.22 ± 0.09 µg/g; % Total retinoids, plasma, 0.5 h ([1]; after ATRA 100 mg kg^−1 oral): <1%; Plasma concentration, 0.5 h ([1]; after ATRA 100 mg kg^−1 oral): 30 ± 10 nM; % Total retinoids, plasma, 2 h ([1]; after ATRA 100 mg kg^−1 oral): <1%; Plasma concentration, 2 h ([1]; after ATRA 100 mg kg^−1 oral): 20 ± 10 nM; % Total retinoids, plasma, 6 h ([1]; after ATRA 100 mg kg^−1 oral): <1%; Plasma concentration, 6 h ([1]; after ATRA 100 mg kg^−1 oral): 50 ± 30 nM
2 | CC1=C(/C=C/C(C)=C/C=C/C(C)=C/C(=O)O)C(C)(C)CCC1=O [AT-4-oxoRA, all-trans-4-oxo-RA] | <1 | 0.02 ± 0.0 | 3 | 0.09 ± 0.04 | 16 | 0.09 ± 0.02 | 5 | 0.26 ± 0.10 | 8 | 0.30 ± 0.09 | 12 | 0.67 ± 0.25 | 0 | 0 | <1 | 130 ± 40 | 0 | 0 | 8 | 0.21 ± 0.09 | Plasma % of total retinoids at all time points ([1]; after 13cisRA 100 mg kg^−1): < 10%; % Total retinoids, tumour, 2 h ([1]; after ATRA 100 mg kg^−1 oral): 2%; Tumour concentration, 2 h ([1]; after ATRA 100 mg kg^−1 oral): 0.24 ± 0.06 µg/g; % Total retinoids, tumour, 6 h ([1]; after ATRA 100 mg kg^−1 oral): 17%; Tumour concentration, 6 h ([1]; after ATRA 100 mg kg^−1 oral): 0.79 ± 0.38 µg/g; % Total retinoids, liver, 0.5 h ([1]; after ATRA 100 mg kg^−1 oral): 11%; Liver concentration, 0.5 h ([1]; after ATRA 100 mg kg^−1 oral): 0.44 ± 0.12 µg/g; % Total retinoids, liver, 2 h ([1]; after ATRA 100 mg kg^−1 oral): 13%; Liver concentration, 2 h ([1]; after ATRA 100 mg kg^−1 oral): 1.07 ± 0.05 µg/g; % Total retinoids, liver, 6 h ([1]; after ATRA 100 mg kg^−1 oral): 45%; Liver concentration, 6 h ([1]; after ATRA 100 mg kg^−1 oral): 2.39 ± 0.72 µg/g; Liver concentration, 6 h ([1]; after ATRA 100 mg kg^−1 oral, listed as AT-4-oxo-RA): 2.39 µg/g; % Total retinoids, plasma, 0.5 h ([1]; after ATRA 100 mg kg^−1 oral): 4%; Plasma concentration, 0.5 h ([1]; after ATRA 100 mg kg^−1 oral): 600 ± 400 nM; % Total retinoids, plasma, 2 h ([1]; after ATRA 100 mg kg^−1 oral): 6%; Plasma concentration, 2 h ([1]; after ATRA 100 mg kg^−1 oral): 1700 ± 300 nM; % Total retinoids, plasma, 6 h ([1]; after ATRA 100 mg kg^−1 oral): 22%; Plasma concentration, 6 h ([1]; after ATRA 100 mg kg^−1 oral): 4000 ± 2400 nM
3 | Clc1cccc(C(c2ccc3[nH]cnc3c2)n2ccnc2)c1 (stereo not drawn) [liarozole] |  |  |  |  |  |  |  |  |  |  |  |  |  |  |  |  |  |  |  |  | Ability to inhibit CYP26 (CYP26): only moderate ability to inhibit CYP26
